Laboratory results: US5798350A, “Dopamine receptor ligands” (Allelix Biopharmaceuticals, Inc., priority 1996, dated 1998)

Molecular target: T1, human D4 receptor (D4.2 sub-type) (Homo sapiens, UniProt P21917, DEL265-296)
T1 construct: expressed in transfected cells; host or cells: HEK 298 (human embryonic kidney) cells, [sic]; homogenate of stably transfected cells
T1 sequence (P21917 with tags, fused parts or gaps DEL265-296): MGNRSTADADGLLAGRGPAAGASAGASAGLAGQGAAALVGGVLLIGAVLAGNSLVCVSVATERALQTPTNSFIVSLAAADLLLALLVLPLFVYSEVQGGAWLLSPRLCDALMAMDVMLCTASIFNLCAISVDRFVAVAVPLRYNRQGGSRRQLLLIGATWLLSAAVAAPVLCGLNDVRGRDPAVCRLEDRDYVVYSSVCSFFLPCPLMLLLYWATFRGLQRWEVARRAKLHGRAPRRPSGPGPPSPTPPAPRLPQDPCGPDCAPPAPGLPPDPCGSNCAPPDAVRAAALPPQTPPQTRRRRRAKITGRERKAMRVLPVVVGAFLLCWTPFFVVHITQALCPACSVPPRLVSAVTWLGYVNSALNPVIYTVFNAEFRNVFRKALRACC
Assay: D4 receptor binding, displacement of 3H-spiperone
Conditions: human D4 receptor; 3H-spiperone 0.25 nM
Description: (§1) The potency of the test compound to reduce ^3 H-spiperone binding directly correlated to its binding affinity for the receptor.
The cells were then centrifuged in a Sorval centrifuge for 10 minutes, 5000 rpm (GS3 rotor) and the pellets quickly frozen in liquid nitrogen and stored at -80° C. until used in binding assay. When used in the assay, cells were thawed on ice for 20 minutes and then 10 mL of incubation buffer (50 mM Tris, 1 mM EDTA, 4 mM MgCl2, 5 mM KCl, 1.5 mM CaCl2, 120 mM NaCl, pH7.4) was added. […] Concentration of receptor protein was determined using the Pierce BCA assay.
(§2) Total Spiperone Binding Assay
(§3) The tubes were vortexed and incubated at room temperature for 90 minutes. The binding reaction was stopped by filtering using a Brandell Cell Harvester. The samples were filtered under vacuum over glass fibre filters (Whatman GF/B) presoaked for 2 hours in 0.3% polyethyleneimine (PEI) in 50 mM Tris buffer (pH7.4). The filters were then washed 3 times with 5 mL ice cold 50 mM Tris buffer (pH7.4). Individual filter disks were put in scintillation vials (Biovials, Bechman). Ready Protein Plus liquid scintillant (5 mL, Beckman) was added and the vials counted by liquid scintillation spectrophotometry (Beckman LSC 6500) after equilibrating for three hours at room temperature to determine total binding (BT).
Non-Specific Binding Assay for D4
The tubes were vortexed and incubated at room temperature for 90 minutes at which time the binding reaction was stopped by filtering. The filters were washed and counted using the same procedure as in the total binding assay described above to give the non-specific binding value (NSB).
(§4) Displacement Binding Assay
(§5) The incubation was started by the addition to 12×75 mm polypropylene tubes 500 μl (50 μg protein) membrane homogenate to a solution of 400 μl incubation buffer, 100 μl (0.25 final conc.) ^3 H-spiperone (90Ci/mmol, Amersham, diluted in borosilicate glass vial to) and […] of test compound that was prepared from 1 mM stock dissolved in DMSO and stored at -20° C. in polypropylene cryogenic storage vials until dilution in incubation buffer in borosilicate glass vials. The tubes were vortexed and incubated at room temperature for 90 minutes at which time the binding reaction was stopped by filtering. The filters were washed and counted using the same procedure as in the total binding assay described above to give the displacement binding value (BD).
IC50 was determined from an inhibition response curve, logit-log plot of %B/BO vs concentration of test compound.
(§6) Ki was calculated by the Cheng and Prustoff transformation: […]
(§7) where [L] is the concentration of ^3 H-spiperone used in the assay and KD is the to dissociation constant of ^3 H-spiperone determined independently under the same binding conditions.

Ki [µM]	Compound
0.119	N#Cc1cccc2c1Oc1ccccc1N=C2N1CCN(Cc2ccc3c(c2)OCO3)CC1 [4-cyano-11-(4-piperonyl-1-piperazinyl)dibenz[b,f][1,4]oxazepine]
0.061	Clc1cc2c(cc1Cl)Nc1ccccc1C(N1CCN(Cc3ccc4c(c3)OCO4)CC1)=N2 [7,8-dichloro-11-(4-piperonyl-1-piperazinyl)-5H-dibenzo[b,e][1,4]diazepine]
0.0245	O=[N+]([O-])c1cccc2c1Oc1ccccc1N=C2N1CCN(Cc2ccc3c(c2)OCO3)CC1 [4-nitro-11-(4-piperonyl-1-piperazinyl)dibenz[b,f][1,4]oxazepine]

Further lines, the molecule ahead of its results:

Compound	Ki [µM]
Clc1ccc2c(c1)C(N1CCN(Cc3ccc4c(c3)OCO4)CC1)=Nc1cc(Cl)c(Cl)cc1N2 [2,7,8-trichloro-11-(4-piperonyl-1-piperazinyl)-5H-dibenzo[b,e][1,4]diazepine]	0.149
FC(F)(F)c1ccc2c(c1)C(N1CCN(Cc3ccc4c(c3)OCO4)CC1)=Nc1ccccc1N2 [2-trifluoromethyl-11-(4-piperonyl-1-piperazinyl)-5H-dibenzo[b,e][1,4]diazepine]	0.0735
Clc1cccc2c1Nc1ccccc1N=C2N1CCN(Cc2ccc3c(c2)OCO3)CC1 [4-chloro-11-(4-piperonyl-1-piperazinyl)-5H-dibenzo[b,e][1,4]diazepine]	0.034
Clc1ccc2c(c1)C(N1CCN(Cc3ccc4c(c3)OCO4)CC1)=Nc1ccccc1N2 [2-Chloro-11-(4-piperonyl)-1-piperazinyl-5H-dibenzo[b,e][1,4]diazepine]	0.076

Molecular target: T2, human D2 receptor (short isoform) (Homo sapiens, UniProt P14416)
T2 construct: membrane homogenate, 3H-spiperone displacement
Assay: D2 receptor binding, displacement of 3H-spiperone (GH4C1 cells), for D2/D4 selectivity
Conditions: D4 selectivity, ratio D2/D4
Description: as §1
GH4 C1 (rat pituitary) cells stably transfected with the human D2 receptor (short isoform) were grown in CO2 independent media in roller bottles (1500 cm^2) for 10 days. 100 μM ZnSO4 was added to the cells (the D2 promoter being zinc inducible). After 16 hours, fresh media was added to allow the cells to recover for 24 hours. The cells were harvested using versene and then centrifuged in a Sorval centrifuge for 10 minutes, at 5000 rpm (GS3 rotor). Pellets were quickly frozen in liquid nitrogen and stored at -80° C. until used in the binding assays. When used in the assay, cells were thawed on ice for 20 minutes. […] 10 mL of incubation buffer was added to the pellets which were then vortexed, resuspended and homogenized with a Kinematica CH-6010 Kriens-LU homogenizer for 15 seconds at setting 7. The receptor protein concentration was determined using the Pierce BCA assay.
as §2
as §3, with “The incubation was started by the addition of 500 μl (50 μg protein) membrane homogenate to a solution of 900 μl incubation buffer and 100 μl (0.25 nM final conc.) ^3 H-spiperone (90 Ci/mmol Amersham diluted in borosilicate glass vial) in 12×75 mm polypropylene tubes. The tubes” for “The tubes”
Non-Specific Binding Assay for D2
This assay employed the same procedures as the non-specific binding assay for D4 with the exception that 2 μM (final conc.) of (-) sulpiride (Research Chemicals Inc.) was used in place of dopamine.
as §4, §5
Specific binding in the absence of test compound (BO) was the difference of total binding (BT) minus non-specific binding (NSB) and similarly specific binding (in the presence of test compound) (B) was the difference of displacement binding (BD) minus non-specific binding (NSB). IC50 was determined from an inhibition response curve, logit-log plot of %B/BO vs concentration of test compound.
as §6, §7

T2 sequence (P14416 with tags, fused parts or gaps DEL242-270): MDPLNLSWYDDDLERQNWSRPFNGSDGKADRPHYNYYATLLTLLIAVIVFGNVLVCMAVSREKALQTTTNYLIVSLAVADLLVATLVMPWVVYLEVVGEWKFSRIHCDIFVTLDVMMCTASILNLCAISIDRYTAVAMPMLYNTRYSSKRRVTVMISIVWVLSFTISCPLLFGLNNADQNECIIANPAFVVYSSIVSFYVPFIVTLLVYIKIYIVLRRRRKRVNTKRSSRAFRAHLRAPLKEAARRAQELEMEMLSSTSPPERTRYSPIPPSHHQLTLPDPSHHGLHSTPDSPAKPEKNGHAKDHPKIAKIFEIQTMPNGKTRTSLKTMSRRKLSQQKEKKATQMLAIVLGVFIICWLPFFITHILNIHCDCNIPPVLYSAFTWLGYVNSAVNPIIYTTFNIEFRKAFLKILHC

D2/D4	Compound
82.1	N#Cc1cccc2c1Oc1ccccc1N=C2N1CCN(Cc2ccc3c(c2)OCO3)CC1 [4-cyano-11-(4-piperonyl-1-piperazinyl)dibenz[b,f][1,4]oxazepine]
27.4	Clc1cc2c(cc1Cl)Nc1ccccc1C(N1CCN(Cc3ccc4c(c3)OCO4)CC1)=N2 [7,8-dichloro-11-(4-piperonyl-1-piperazinyl)-5H-dibenzo[b,e][1,4]diazepine]
53.2	O=[N+]([O-])c1cccc2c1Oc1ccccc1N=C2N1CCN(Cc2ccc3c(c2)OCO3)CC1 [4-nitro-11-(4-piperonyl-1-piperazinyl)dibenz[b,f][1,4]oxazepine]

Further lines, the molecule ahead of its results:

Compound	D2/D4
Clc1ccc2c(c1)C(N1CCN(Cc3ccc4c(c3)OCO4)CC1)=Nc1cc(Cl)c(Cl)cc1N2 [2,7,8-trichloro-11-(4-piperonyl-1-piperazinyl)-5H-dibenzo[b,e][1,4]diazepine]	15.7
FC(F)(F)c1ccc2c(c1)C(N1CCN(Cc3ccc4c(c3)OCO4)CC1)=Nc1ccccc1N2 [2-trifluoromethyl-11-(4-piperonyl-1-piperazinyl)-5H-dibenzo[b,e][1,4]diazepine]	1.9
Clc1cccc2c1Nc1ccccc1N=C2N1CCN(Cc2ccc3c(c2)OCO3)CC1 [4-chloro-11-(4-piperonyl-1-piperazinyl)-5H-dibenzo[b,e][1,4]diazepine]	10.6
Clc1ccc2c(c1)C(N1CCN(Cc3ccc4c(c3)OCO4)CC1)=Nc1ccccc1N2 [2-Chloro-11-(4-piperonyl)-1-piperazinyl-5H-dibenzo[b,e][1,4]diazepine]	7.3

Same assay, conditions: compared with clozapine

D4 selectivity	Compound
better D4 selectivity than clozapine	N#Cc1cccc2c1Oc1ccccc1N=C2N1CCN(Cc2ccc3c(c2)OCO3)CC1 [4-cyano-11-(4-piperonyl-1-piperazinyl)dibenz[b,f][1,4]oxazepine]
better D4 selectivity than clozapine	Clc1cc2c(cc1Cl)Nc1ccccc1C(N1CCN(Cc3ccc4c(c3)OCO4)CC1)=N2 [7,8-dichloro-11-(4-piperonyl-1-piperazinyl)-5H-dibenzo[b,e][1,4]diazepine]
better D4 selectivity than clozapine	O=[N+]([O-])c1cccc2c1Oc1ccccc1N=C2N1CCN(Cc2ccc3c(c2)OCO3)CC1 [4-nitro-11-(4-piperonyl-1-piperazinyl)dibenz[b,f][1,4]oxazepine]

More lines, now with the values behind:

Compound	D4 selectivity
Clc1ccc2c(c1)C(N1CCN(Cc3ccc4c(c3)OCO4)CC1)=Nc1cc(Cl)c(Cl)cc1N2 [2,7,8-trichloro-11-(4-piperonyl-1-piperazinyl)-5H-dibenzo[b,e][1,4]diazepine]	better D4 selectivity than clozapine
Clc1cccc2c1Nc1ccccc1N=C2N1CCN(Cc2ccc3c(c2)OCO3)CC1 [4-chloro-11-(4-piperonyl-1-piperazinyl)-5H-dibenzo[b,e][1,4]diazepine]	better D4 selectivity than clozapine

Same assay, conditions: compared with corresponding 4-methyl piperazine compound

Compound	D4 selectivity
Clc1ccc2c(c1)C(N1CCN(Cc3ccc4c(c3)OCO4)CC1)=Nc1cc(Cl)c(Cl)cc1N2 [2,7,8-trichloro-11-(4-piperonyl-1-piperazinyl)-5H-dibenzo[b,e][1,4]diazepine]	better D4selectivity than the corresponding 4-methyl piperazine compound
FC(F)(F)c1ccc2c(c1)C(N1CCN(Cc3ccc4c(c3)OCO4)CC1)=Nc1ccccc1N2 [2-trifluoromethyl-11-(4-piperonyl-1-piperazinyl)-5H-dibenzo[b,e][1,4]diazepine]	better D4selectivity than the corresponding 4-methyl piperazine compound
Clc1cc2c(cc1Cl)Nc1ccccc1C(N1CCN(Cc3ccc4c(c3)OCO4)CC1)=N2 [7,8-dichloro-11-(4-piperonyl-1-piperazinyl)-5H-dibenzo[b,e][1,4]diazepine]	better D4selectivity than the corresponding 4-methyl piperazine compound

Tested on: D4 receptor
Assay: not given
Conditions: background; cited from earlier work

Compound	preference for binding the D4 receptor relative to the D2 receptor
CN1CCN(C2=Nc3cc(Cl)ccc3Oc3ccccc32)CC1 [isoloxapine]	about 10 fold

Same assay, conditions: background; read-out: Ki value (D4 affinity); cited from earlier work

Compound	Ki [µM]
CN1CCN(C2=Nc3cc(Cl)ccc3Oc3ccccc32)CC1 [isoloxapine]	~0.02
